Source: patent US11345711B2, “8,9-dihydroimidazo[1,2-a]pyrimido[5,4-e]pyrimidin-5(6H)-ones” (IMPACT THERAPEUTICS (SHANGHAI), INC, priority 2016, dated 2022)
Read-outs that look alike come from different tables or passages of the source.

How the values were obtained:
Wee1 (h) = Wee1 (h) (Homo sapiens, UniProt P30291); experiment: Wee1 kinase (h) detection method, [γ-33P]-ATP filter assay; format: biochemical
LoVo cells = experiment: MTT based cell viability assay on LoVo cells; details: Homo sapiens, LoVo, 72 h, 3 d, read-out: IC50, growth inhibition of LoVo cells
How it was run: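 Inhibition of LoVo proliferation was derived as IC50 from a sigmoidal dose-response fit of cell survival. Readout was MTT (0.5 mg/mL, 4 h) with absorbance at 552/630/690 nm, after 3-day treatment at 37 °C. Eight-point series from 10 μM to 0.01 μM, DMSO control, 1% DMSO final.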

NCI-H1299 cells = experiment: MTT based cell viability assay on NCI-H1299 cells; details: Homo sapiens, read-out: IC50, growth inhibition of NCI-H1299 cells
How it was run: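 Viability read-out was MTT reduction (0.5 mg/mL, 4 h, absorbance 552/630/690 nm) after 3-day compound exposure at 37 °C of NCI-H1299 cells seeded at 1000 per well. Dilutions spanned 10 μM–0.01 μM in DMSO, final DMSO 1‰. Survival-versus-concentration curves were fitted sigmoidally to give IC50.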

Wee1 (h), sequence (P30291 whole entry): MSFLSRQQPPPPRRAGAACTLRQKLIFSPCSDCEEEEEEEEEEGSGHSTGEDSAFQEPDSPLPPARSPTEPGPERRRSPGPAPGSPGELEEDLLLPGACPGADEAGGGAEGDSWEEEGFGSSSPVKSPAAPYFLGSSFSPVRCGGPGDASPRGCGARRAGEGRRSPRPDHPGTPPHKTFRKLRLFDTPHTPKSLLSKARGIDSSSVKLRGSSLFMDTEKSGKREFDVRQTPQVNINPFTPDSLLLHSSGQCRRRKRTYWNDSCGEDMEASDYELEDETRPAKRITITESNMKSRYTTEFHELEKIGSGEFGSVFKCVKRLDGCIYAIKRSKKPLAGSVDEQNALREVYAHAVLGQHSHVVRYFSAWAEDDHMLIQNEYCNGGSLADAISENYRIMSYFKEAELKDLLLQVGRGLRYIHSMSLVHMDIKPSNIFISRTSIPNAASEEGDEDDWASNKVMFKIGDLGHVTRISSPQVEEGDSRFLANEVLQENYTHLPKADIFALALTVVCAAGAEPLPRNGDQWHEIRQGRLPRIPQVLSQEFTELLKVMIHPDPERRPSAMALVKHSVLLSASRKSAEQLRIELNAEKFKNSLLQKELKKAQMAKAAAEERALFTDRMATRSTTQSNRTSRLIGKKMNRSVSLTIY

| Inh. (%) of Wee1 kinase enzyme activity (Wee1 (h); C 0.01 μm compound) [%] | Inh. (%) of Wee1 kinase enzyme activity (Wee1 (h); C 0.1 μm compound) [%] | Inh. (%) of Wee1 kinase enzyme activity (Wee1 (h); C 1 μm compound) [%] | IC50 (LoVo cells) [µM] | IC50 (NCI-H1299 cells; NCI-H1299 cells) [µM] | IC50 (NCI-H1299 cells; NCI-H1299, NCI-H1299 cells) [µM] | Structure (SMILES) |
| --- | --- | --- | --- | --- | --- | --- |
| 27 | 72 | 97 | 0.0933 | 0.217 |  | CN1CCN(c2ccc(Nc3ncc4c(n3)N3CCN=C3N(c3c(Cl)cccc3Br)C4=O)cc2Cl)CC1 [Example 161, 6-(2-Bromo-6-chlorophenyl)-2-((3-chloro-4-(4-methylpiperazin-1-yl)phenyl)amino)-8,9-dihydroimidazo[1,2-a]pyrimido[5,4-e]pyrimidin-5(6H)-one] |
| 22 | 86 | 98 | 0.0652 | 0.207 |  | CN1CCN(c2ccc(Nc3ncc4c(n3)N3CCN=C3N(c3c(Cl)cccc3Br)C4=O)cc2Br)CC1 [Example 162, 6-(2-Bromo-6-chlorophenyl)-2-((3-bromo-4-(4-methylpiperazin-1-yl)phenyl)amino)-8,9-dihydroimidazo[1,2-a]pyrimido[5,4-e]pyrimidin-5(6H)-one] |
| 25 | 87 | 99 | 0.0625 | 0.0978 |  | Cc1cc(Nc2ncc3c(n2)N2CCN=C2N(c2c(Cl)cccc2Br)C3=O)ccc1N1CCN(C)CC1 [Example 163, 6-(2-Bromo-6-chlorophenyl)-2-((3-methyl-4-(4-methylpiperazin-1-yl)phenyl)amino)-8,9-dihydroimidazo[1,2-a]pyrimido[5,4-e]pyrimidin-5(6H)-one] |
| 17 | 68 | 97 | 0.101 |  | 0.159 | CN1CCN(c2c(Cl)cc(Nc3ncc4c(n3)N3CCN=C3N(c3c(Cl)cccc3Br)C4=O)cc2Cl)CC1 [Example 164, 6-(2-Bromo-6-chlorophenyl)-2-((3,5-dichloro-4-(4-methylpiperazin-1-yl)phenyl)amino)-8,9-dihydroimidazo[1,2-a]pyrimido[5,4-e]pyrimidin-5(6H)-one] |
| 28 | 86 | 98 | 0.0555 |  | 0.0993 | Cc1cc(Nc2ncc3c(n2)N2CCN=C2N(c2c(Cl)cccc2Br)C3=O)cc(Cl)c1N1CCN(C)CC1 [Example 166, 6-(2-Bromo-6-chlorophenyl)-2-((3-chloro-5-methyl-4-(4-methylpiperazin-1-yl)phenyl)amino)-8,9-dihydroimidazo[1,2-a]pyrimido[5,4-e]pyrimidin-5(6H)-one] |
|  |  | 89 | 0.296 | 0.599 |  | Cc1cccc(F)c1N1C(=O)c2cnc(Nc3ccc(N4CCN(C)CC4)c(Cl)c3)nc2N2CCN=C21 [Example 168, 6-(2-Fluoro-6-methylphenyl)-2-((3-chloro-4-(4-methylpiperazin-1-yl)phenyl)amino)-8,9-dihydroimidazo[1,2-a]pyrimido[5,4-e]pyrimidin-5(6H)-one] |
| 16 | 59 | 95 | 0.228 |  | 0.442 | Cc1cccc(Cl)c1N1C(=O)c2cnc(Nc3ccc(N4CCN(C)CC4)c(Cl)c3)nc2N2CCN=C21 [Example 171, 6-(2-Chloro-6-methylphenyl)-2-((3-chloro-4-(4-methylpiperazin-1-yl)phenyl)amino)-8,9-dihydroimidazo[1,2-a]pyrimido[5,4-e]pyrimidin-5(6H)-one] |

The next lines start with the compound.

| Structure (SMILES) | Inh. (%) of Wee1 kinase enzyme activity (Wee1 (h); C 0.01 μm compound) [%] | Inh. (%) of Wee1 kinase enzyme activity (Wee1 (h); C 0.1 μm compound) [%] | Inh. (%) of Wee1 kinase enzyme activity (Wee1 (h); C 1 μm compound) [%] | IC50 (LoVo cells) [µM] | IC50 (NCI-H1299 cells; NCI-H1299 cells) [µM] | IC50 (NCI-H1299 cells; NCI-H1299, NCI-H1299 cells) [µM] |
| --- | --- | --- | --- | --- | --- | --- |
| Cc1cc(Nc2ncc3c(n2)N2CCN=C2N(c2c(Cl)cccc2Br)C3=O)cc(F)c1N1CCN(C)CC1 [Example 165, 6-(2-Bromo-6-chlorophenyl)-2-((3-fluoro-5-methyl-4-(4-methylpiperazin-1-yl)phenyl)amino)-8,9-dihydroimidazo[1,2-a]pyrimido[5,4-e]pyrimidin-5(6H)-one] |  |  | 92 | 0.0241 |  | 0.0973 |
| Cc1cc(Nc2ncc3c(n2)N2CCN=C2N(c2c(Cl)cccc2Br)C3=O)cc(Br)c1N1CCN(C)CC1 [Example 167, 6-(2-Bromo-6-chlorophenyl)-2-((3-bromo-5-methyl-4-(4-methylpiperazin-1-yl)phenyl)amino)-8,9-dihydroimidazo[1,2-a]pyrimido[5,4-e]pyrimidin-5(6H)-one] | 21 | 82 | 98 | 0.0627 |  | 0.107 |
| Cc1cc(Nc2ncc3c(n2)N2CCN=C2N(c2c(C)cccc2F)C3=O)cc(C)c1N1CCN(C)CC1 [Example 169, 6-(2-Fluoro-6-methylphenyl)-2-((3,5-dimethyl-4-(4-methylpiperazin-1-yl)phenyl)amino)-8,9-dihydroimidazo[1,2-a]pyrimido[5,4-e]pyrimidin-5(6H)-one] | 16 | 73 | 93 | 0.165 |  | 0.274 |
| Cc1cccc(Cl)c1N1C(=O)c2cnc(Nc3cc(Cl)c(N4CCN(C)CC4)c(Cl)c3)nc2N2CCN=C21 [Example 172, 6-(2-Chloro-6-methylphenyl)-2-((3,5-dichloro-4-(4-methylpiperazin-1-yl)phenyl)amino)-8,9-dihydroimidazo[1,2-a]pyrimido[5,4-e]pyrimidin-5(6H)-one] | 12 | 60 | 91 | 0.117 |  | 0.362 |
| Cc1cc(Nc2ncc3c(n2)N2CCN=C2N(c2c(C)cccc2Cl)C3=O)cc(Cl)c1N1CCN(C)CC1 [Example 173, 6-(2-Chloro-6-methylphenyl)-2-((3-chloro-5-methyl-4-(4-methylpiperazin-1-yl)phenyl)amino)-8,9-dihydroimidazo[1,2-a]pyrimido[5,4-e]pyrimidin-5(6H)-one] | 26 | 71 | 94 | 0.0992 |  | 0.226 |
| Cc1cc(Nc2ncc3c(n2)N2CCN=C2N(c2c(C)cccc2Cl)C3=O)cc(C)c1N1CCN(C)CC1 [Example 174, 6-(2-Chloro-6-methylphenyl)-2-((3,5-dimethyl-4-(4-methylpiperazin-1-yl)phenyl)amino)-8,9-dihydroimidazo[1,2-a]pyrimido[5,4-e]pyrimidin-5(6H)-one] | 30 | 83 | 94 | 0.136 |  | 0.152 |
| O=C1c2cnc(Nc3ccc(N4CCNCC4)cc3)nc2N2CCN=C2N1c1c(Cl)cccc1Cl [Example 175, 6-(2,6-Dichlorophenyl)-2-((4-(piperazin-1-yl)phenyl)amino)-8,9-dihydroimidazo[1,2-a]pyrimido[5,4-e]pyrimidin-5(6H)-one] |  |  | 95 | 0.192 | 0.269 |  |
| O=C1c2cnc(Nc3ccc(N4CCNCC4)c(Cl)c3)nc2N2CCN=C2N1c1c(Cl)cccc1Cl [Example 176, 6-(2,6-Dichlorophenyl)-2-((3-chloro-4-(piperazin-1-yl)phenyl)amino)-8,9-dihydroimidazo[1,2-a]pyrimido[5,4-e]pyrimidin-5(6H)-one] |  |  | 96 | 0.0736 | 0.126 |  |
